Experiments:
Assay in all cases: KINOMEscan
Type in all cases: binding
Conditions in all cases: read-out: % control activity remaining
[1] = target: T1, NEK9 (Homo sapiens, UniProt Q8TD19)
T1 construct: purchased Eurofins DiscoverX KINOMEscan
T1 sequence (Q8TD19 1-979): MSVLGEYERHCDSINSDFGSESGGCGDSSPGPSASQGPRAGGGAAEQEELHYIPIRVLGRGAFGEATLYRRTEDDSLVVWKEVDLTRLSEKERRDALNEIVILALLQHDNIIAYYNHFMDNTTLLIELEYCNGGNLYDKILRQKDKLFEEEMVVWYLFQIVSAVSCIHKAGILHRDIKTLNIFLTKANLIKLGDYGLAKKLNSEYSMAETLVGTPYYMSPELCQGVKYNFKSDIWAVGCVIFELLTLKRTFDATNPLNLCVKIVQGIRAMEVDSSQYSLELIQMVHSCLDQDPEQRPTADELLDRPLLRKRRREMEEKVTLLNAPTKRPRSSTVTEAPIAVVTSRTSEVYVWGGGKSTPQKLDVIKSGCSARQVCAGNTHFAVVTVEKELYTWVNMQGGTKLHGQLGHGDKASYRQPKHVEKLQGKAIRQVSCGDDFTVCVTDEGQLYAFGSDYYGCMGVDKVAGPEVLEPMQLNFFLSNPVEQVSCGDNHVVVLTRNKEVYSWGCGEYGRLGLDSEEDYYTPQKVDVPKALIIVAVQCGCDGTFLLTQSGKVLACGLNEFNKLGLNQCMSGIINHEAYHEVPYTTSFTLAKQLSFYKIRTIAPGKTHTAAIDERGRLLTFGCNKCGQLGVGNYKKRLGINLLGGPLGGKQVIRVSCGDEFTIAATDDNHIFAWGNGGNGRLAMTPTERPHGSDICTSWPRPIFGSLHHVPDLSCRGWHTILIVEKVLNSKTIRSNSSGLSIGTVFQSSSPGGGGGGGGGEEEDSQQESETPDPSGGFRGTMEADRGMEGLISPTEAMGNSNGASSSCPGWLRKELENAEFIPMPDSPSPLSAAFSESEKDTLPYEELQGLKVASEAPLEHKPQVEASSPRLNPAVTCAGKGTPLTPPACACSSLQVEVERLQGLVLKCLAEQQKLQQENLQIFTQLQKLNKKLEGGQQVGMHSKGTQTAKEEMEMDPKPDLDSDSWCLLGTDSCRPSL

[2] = target: T2, HASPIN (Homo sapiens, UniProt Q8TF76)
T2 construct: purchased Eurofins DiscoverX KINOMEscan
T2 sequence (Q8TF76 1-798): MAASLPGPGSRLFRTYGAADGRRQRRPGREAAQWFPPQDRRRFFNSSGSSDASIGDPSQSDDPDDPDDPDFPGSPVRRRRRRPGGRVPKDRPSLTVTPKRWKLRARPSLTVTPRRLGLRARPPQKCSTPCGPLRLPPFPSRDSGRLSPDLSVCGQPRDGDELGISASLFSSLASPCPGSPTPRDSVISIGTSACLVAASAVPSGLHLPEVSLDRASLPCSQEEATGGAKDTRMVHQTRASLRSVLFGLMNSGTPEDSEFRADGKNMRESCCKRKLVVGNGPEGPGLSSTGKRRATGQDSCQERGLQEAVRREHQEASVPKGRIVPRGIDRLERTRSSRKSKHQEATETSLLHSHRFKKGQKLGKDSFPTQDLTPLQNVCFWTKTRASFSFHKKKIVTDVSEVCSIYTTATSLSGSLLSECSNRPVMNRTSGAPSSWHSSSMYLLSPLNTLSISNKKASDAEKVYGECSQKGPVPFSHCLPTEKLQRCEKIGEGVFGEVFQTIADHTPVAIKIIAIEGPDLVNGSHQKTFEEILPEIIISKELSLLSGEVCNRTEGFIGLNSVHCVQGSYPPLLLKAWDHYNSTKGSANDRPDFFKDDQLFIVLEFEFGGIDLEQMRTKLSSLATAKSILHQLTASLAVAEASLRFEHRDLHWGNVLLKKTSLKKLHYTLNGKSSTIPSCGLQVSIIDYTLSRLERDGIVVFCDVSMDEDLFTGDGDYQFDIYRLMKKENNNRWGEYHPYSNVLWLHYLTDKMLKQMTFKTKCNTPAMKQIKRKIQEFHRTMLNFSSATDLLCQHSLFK

[3] = target: T3, CASK (Homo sapiens, UniProt O14936)
T3 construct: purchased Eurofins DiscoverX KINOMEscan
T3 sequence (O14936 1-926): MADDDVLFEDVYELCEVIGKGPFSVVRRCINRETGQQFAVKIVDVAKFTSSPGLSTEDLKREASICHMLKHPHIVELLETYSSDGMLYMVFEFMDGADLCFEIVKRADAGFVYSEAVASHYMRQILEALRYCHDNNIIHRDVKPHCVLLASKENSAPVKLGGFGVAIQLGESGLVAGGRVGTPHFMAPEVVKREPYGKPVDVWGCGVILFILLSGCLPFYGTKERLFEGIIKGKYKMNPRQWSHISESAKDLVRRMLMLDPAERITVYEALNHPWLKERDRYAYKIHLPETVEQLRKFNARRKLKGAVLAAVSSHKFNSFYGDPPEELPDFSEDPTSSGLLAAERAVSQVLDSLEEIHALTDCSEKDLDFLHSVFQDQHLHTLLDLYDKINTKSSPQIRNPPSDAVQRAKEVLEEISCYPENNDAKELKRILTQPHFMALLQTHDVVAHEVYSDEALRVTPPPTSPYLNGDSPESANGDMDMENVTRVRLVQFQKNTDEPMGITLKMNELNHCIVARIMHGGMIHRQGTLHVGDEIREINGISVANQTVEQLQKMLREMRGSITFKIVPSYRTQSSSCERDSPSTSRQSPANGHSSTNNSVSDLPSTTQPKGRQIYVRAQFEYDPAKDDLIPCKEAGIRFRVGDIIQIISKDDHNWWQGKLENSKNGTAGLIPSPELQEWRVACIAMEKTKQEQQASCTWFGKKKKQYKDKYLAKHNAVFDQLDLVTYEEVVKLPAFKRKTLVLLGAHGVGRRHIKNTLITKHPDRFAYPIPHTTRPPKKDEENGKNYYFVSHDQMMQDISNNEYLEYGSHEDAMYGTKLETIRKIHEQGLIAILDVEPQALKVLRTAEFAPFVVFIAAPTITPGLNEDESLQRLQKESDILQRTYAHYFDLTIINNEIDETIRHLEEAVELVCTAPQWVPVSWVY

[4] = target: T4, DYRK1A (Homo sapiens, UniProt Q13627)
T4 construct: purchased Eurofins DiscoverX KINOMEscan

[5] = target: T5, MKNK1 (Homo sapiens, UniProt Q9BUB5)
T5 construct: purchased Eurofins DiscoverX KINOMEscan
T5 sequence (Q9BUB5 whole entry): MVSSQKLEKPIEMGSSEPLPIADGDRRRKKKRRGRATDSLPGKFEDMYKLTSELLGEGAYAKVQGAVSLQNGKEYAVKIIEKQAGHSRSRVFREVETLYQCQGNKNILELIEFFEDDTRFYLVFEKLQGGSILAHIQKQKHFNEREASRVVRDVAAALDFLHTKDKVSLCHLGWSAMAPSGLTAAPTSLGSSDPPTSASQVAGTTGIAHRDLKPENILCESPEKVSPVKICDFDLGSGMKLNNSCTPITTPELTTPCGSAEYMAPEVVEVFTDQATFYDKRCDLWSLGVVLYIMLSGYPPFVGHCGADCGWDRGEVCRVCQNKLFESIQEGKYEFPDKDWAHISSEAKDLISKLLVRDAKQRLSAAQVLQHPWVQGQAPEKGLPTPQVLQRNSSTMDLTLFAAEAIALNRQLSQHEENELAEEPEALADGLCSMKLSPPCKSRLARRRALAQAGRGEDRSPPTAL

[6] = target: T6, DAPK2 (Homo sapiens, UniProt Q9UIK4)
T6 construct: purchased Eurofins DiscoverX KINOMEscan
T6 sequence (Q9UIK4 whole entry): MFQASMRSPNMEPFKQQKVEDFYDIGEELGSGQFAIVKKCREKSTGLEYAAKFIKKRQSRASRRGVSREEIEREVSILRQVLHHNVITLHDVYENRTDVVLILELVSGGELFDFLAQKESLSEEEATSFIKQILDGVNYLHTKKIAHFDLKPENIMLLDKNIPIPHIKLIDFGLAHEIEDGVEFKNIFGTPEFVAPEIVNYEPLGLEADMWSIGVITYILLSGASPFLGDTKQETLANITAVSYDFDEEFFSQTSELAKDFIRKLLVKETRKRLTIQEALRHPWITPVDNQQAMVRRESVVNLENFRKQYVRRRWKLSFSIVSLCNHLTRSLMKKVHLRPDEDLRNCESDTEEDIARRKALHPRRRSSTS

[7] = target: T7, TNIK (Homo sapiens, UniProt Q9UKE5)
T7 construct: purchased Eurofins DiscoverX KINOMEscan
T7 sequence (Q9UKE5 whole entry): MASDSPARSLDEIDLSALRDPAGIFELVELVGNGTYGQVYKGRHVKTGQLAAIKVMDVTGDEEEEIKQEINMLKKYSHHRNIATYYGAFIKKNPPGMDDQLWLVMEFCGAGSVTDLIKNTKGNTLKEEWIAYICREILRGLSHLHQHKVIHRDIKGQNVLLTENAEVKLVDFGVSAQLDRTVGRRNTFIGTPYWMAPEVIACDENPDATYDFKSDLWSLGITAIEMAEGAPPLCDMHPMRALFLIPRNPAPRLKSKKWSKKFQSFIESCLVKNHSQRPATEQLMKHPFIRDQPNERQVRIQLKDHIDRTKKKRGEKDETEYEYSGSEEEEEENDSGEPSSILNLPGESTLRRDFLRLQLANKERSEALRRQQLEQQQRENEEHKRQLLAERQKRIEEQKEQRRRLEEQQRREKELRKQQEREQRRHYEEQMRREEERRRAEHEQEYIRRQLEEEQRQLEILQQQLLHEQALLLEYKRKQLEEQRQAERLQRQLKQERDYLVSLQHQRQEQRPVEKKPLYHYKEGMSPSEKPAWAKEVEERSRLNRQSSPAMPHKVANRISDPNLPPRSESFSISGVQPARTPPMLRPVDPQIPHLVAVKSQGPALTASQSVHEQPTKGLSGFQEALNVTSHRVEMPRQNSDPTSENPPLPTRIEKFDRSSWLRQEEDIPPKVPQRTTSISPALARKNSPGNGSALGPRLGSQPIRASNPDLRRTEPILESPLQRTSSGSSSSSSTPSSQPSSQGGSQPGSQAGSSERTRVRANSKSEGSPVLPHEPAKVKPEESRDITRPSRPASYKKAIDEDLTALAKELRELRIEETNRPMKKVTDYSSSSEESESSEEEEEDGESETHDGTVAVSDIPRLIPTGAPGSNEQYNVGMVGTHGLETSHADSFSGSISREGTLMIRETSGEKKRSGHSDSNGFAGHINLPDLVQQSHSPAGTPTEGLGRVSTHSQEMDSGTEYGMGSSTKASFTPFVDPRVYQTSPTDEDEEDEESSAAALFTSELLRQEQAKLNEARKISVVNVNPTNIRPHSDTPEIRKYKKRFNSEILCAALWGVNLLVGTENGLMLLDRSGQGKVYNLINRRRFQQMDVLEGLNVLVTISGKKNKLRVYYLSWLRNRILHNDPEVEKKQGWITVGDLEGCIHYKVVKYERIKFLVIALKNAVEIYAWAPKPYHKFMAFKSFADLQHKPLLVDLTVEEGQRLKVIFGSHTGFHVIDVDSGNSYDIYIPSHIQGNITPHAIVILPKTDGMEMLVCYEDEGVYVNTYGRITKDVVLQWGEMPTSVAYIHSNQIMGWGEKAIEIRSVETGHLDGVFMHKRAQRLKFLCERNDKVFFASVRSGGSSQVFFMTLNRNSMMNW

[8] = target: T8, MYO3A (Homo sapiens, UniProt Q8NEV4)
T8 construct: purchased Eurofins DiscoverX KINOMEscan
T8 sequence (Q8NEV4 whole entry): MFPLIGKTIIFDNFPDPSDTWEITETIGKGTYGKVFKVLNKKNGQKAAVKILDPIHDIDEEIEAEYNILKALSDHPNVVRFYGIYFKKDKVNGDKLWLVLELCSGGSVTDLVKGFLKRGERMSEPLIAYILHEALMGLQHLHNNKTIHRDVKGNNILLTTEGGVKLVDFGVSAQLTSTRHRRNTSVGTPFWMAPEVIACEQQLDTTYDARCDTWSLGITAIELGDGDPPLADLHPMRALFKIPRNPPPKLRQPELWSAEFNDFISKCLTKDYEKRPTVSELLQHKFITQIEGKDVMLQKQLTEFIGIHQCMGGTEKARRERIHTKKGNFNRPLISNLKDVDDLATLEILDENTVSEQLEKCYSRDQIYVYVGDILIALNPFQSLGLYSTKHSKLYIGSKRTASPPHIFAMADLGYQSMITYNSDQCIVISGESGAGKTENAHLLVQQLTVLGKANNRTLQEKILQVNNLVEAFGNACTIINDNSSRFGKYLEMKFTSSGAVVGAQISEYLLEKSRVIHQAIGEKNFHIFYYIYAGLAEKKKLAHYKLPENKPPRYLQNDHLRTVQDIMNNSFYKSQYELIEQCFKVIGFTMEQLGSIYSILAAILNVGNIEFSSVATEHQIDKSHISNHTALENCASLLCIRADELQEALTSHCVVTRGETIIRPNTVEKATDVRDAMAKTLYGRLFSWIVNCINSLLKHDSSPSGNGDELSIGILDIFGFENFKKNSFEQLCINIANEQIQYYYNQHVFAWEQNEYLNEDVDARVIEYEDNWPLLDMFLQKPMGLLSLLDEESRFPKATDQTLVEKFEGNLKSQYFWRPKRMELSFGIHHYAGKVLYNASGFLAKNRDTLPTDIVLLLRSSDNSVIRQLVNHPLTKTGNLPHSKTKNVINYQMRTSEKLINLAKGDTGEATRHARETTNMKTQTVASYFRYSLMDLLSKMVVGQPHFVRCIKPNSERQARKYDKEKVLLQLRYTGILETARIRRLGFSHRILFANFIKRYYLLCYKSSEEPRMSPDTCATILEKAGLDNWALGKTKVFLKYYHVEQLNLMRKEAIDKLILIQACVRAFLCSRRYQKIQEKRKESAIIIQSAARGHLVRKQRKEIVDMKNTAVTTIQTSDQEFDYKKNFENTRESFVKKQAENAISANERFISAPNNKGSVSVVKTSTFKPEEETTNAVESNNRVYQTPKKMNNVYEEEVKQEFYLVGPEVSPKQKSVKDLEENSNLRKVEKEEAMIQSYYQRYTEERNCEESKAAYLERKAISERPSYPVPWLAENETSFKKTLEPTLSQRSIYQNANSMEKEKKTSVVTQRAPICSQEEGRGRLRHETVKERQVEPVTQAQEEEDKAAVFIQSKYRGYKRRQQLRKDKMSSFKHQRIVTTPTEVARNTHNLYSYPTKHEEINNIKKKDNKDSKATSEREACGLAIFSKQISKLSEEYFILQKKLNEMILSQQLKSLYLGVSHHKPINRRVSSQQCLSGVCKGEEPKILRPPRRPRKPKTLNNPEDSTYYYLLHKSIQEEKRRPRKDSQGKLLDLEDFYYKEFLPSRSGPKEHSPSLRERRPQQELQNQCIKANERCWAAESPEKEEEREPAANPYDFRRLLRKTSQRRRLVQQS

| SMILES | remaining binding at 1 µM [1] | remaining binding at 1 µM [2] | remaining binding at 1 µM [3] | remaining binding at 1 µM [4] | remaining binding at 1 µM [5] | remaining binding at 1 µM [6] | remaining binding at 1 µM [7] | remaining binding at 1 µM [8] |
| --- | --- | --- | --- | --- | --- | --- | --- | --- |
| CN1CCC(CNc2cc(Cl)nn3c(-c4cc5nc(Nc6ccccc6)[nH]c5cc4F)cnc23)CC1 [compound 31, 6-Chloro-3-(6-fluoro-2-(phenylamino)-1H-benzo[d]imidazol-5-yl)-N-((1-methylpiperidin-4-yl)methyl)imidazo[1,2-b]pyridazin-8-amine] | 100% | 66% | 100% | 71% | 83% | 98% | 97% | 97% |
| O=C(CN1CCOCC1)N[C@H]1CC[C@H](Nc2cc(Cl)nn3c(-c4ccc5[nH]ncc5c4)cnc23)CC1 [compound 26] | 91% | 22% | 59% | 0.35% | 88% | 69% | 47% | 96% |
| Clc1cc(NCC2CC2)c2ncc(-c3ccc4[nH]ncc4c3)n2n1 [compound 2, 6-Chloro-N-(cyclopropylmethyl)-3-(1H-indazol-5-yl)imidazo[1,2-b]pyridazin-8-amine] | 100% | 21% | 87% | 5.1% | 82% | 91% | 80% | 96% |
